The structures appear in SMILES notation.

As usually defined, the IC50 is the concentration needed to halve the response being measured.

Sequence of Alpha-glucosidase MAL12 (P53341 whole entry): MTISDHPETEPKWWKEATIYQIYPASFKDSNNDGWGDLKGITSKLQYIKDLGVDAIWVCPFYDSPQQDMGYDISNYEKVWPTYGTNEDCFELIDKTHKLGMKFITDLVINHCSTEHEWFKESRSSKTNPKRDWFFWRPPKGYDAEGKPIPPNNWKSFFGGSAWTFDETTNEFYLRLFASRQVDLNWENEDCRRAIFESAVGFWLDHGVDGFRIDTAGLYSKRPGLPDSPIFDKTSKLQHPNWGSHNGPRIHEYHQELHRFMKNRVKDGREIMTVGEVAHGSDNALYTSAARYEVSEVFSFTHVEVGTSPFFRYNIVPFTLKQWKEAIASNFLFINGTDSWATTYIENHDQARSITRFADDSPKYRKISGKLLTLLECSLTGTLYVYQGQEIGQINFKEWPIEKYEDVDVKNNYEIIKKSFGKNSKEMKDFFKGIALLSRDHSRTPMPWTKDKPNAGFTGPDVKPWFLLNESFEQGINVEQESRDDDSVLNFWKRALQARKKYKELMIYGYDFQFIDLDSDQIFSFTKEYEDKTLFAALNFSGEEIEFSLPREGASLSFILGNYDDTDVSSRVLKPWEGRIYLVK

This experiment has as its target Alpha-glucosidase MAL12 (Saccharomyces cerevisiae (strain ATCC 204508 / S288c), UniProt P53341). Kind of experiment: Baker's Yeast alpha-Glucosidase Inhibition Assay. The following applies: pH 6.8; 37 °C. The protocol:
The enzyme inhibition was evaluated according to the method previously reported by Taha et al. with slight modification. Various concentration of test compounds (10 uL) were dissolved in DMSO (ranging from 200 to 6.25 ug/mL) and premixed with 95 uL of 50 mM phosphate buffer (pH 6.8). Then, 25 uL of enzyme (0.0625 U/mL) in phosphate buffer saline was added into each well and the plate was incubated at 37 °C for 10 min. Afterward, 25 uL of PNPG in phosphate buffer saline (5 mM) were added and pre-read of the plate was taken by using a microplate reader (Spectrostar Nano BMG Labtech, Germany). The reaction mixture was then incubated at 37 °C for 30 min and change in absorbance at 405 nm was monitored up to 30 min. For negative control, the test samples were replaced with 10 uL of DMSO and acarbose was used as positive control. All experiments were triplicated and the results were expressed as the mean +/- S.E.M of three determinations.
Molecule `O=c1oc2ccccc2c(O)c1C(c1ccc(NC(=S)Nc2ccccc2Br)cc1)c1c(O)c2ccccc2oc1=O` [1-(4-(bis(4-Hydroxy-2-oxo-2H-chromen-3-yl)methyl)phenyl)-3-(2-bromophenyl)-thiourea (1)] came in with an IC50 of 37.4 µM.
For `O=c1oc2ccccc2c(O)c1C(c1ccc(NC(=S)Nc2ccccc2F)cc1)c1c(O)c2ccccc2oc1=O` [1-(4-(bis(4-Hydroxy-2-oxo-2H-chromen-3-yl)methyl)phenyl)-3-(2-fluorophenyl)-thiourea (7)], the midpoint of inhibition, the IC50, lay at 91.3 µM.
With `O=c1oc2ccccc2c(O)c1C(c1ccc(NC(=S)Nc2cccc(Br)c2)cc1)c1c(O)c2ccccc2oc1=O` [1-(4-(bis(4-Hydroxy-2-oxo-2H-chromen-3-yl)methyl)phenyl)-3-(3-bromophenyl)-thiourea (2)] the figure was 35.9 µM.
With `O=c1oc2ccccc2c(O)c1C(c1ccc(NC(=S)Nc2cccc(F)c2)cc1)c1c(O)c2ccccc2oc1=O` [1-(4-(bis(4-Hydroxy-2-oxo-2H-chromen-3-yl)methyl)phenyl)-3-(3-fluorophenyl)-thiourea (8)] the figure was 55.1 µM; with `O=c1oc2ccccc2c(O)c1C(c1ccc(NC(=S)Nc2cccc([N+](=O)[O-])c2)cc1)c1c(O)c2ccccc2oc1=O` [1-(4-(bis(4-Hydroxy-2-oxo-2H-chromen-3-yl)methyl)phenyl)-3-(3-nitrophenyl)-thiourea (17)], 51 µM.
With `O=c1oc2ccccc2c(O)c1C(c1ccc(NC(=S)Nc2ccc(Br)cc2)cc1)c1c(O)c2ccccc2oc1=O` [1-(4-(bis(4-Hydroxy-2-oxo-2H-chromen-3-yl)methyl)phenyl)-3-(4-bromophenyl)-thiourea (3)] the figure was 39 µM.
In the case of `O=c1oc2ccccc2c(O)c1C(c1ccc(NC(=S)Nc2ccc(F)cc2)cc1)c1c(O)c2ccccc2oc1=O` [1-(4-(bis(4-Hydroxy-2-oxo-2H-chromen-3-yl)methyl)phenyl)-3-(4-fluorophenyl)-thiourea (9)], the IC50 is 53.4 µM.
Under `O=c1oc2ccccc2c(O)c1C(c1ccc(NC(=S)Nc2ccc([N+](=O)[O-])cc2)cc1)c1c(O)c2ccccc2oc1=O` [1-(4-(bis(4-Hydroxy-2-oxo-2H-chromen-3-yl)methyl)phenyl)-3-(4-nitrophenyl) thiourea (18)] stands 24.7 µM.

Source of the values: BindingDB's records for doi:10.1016/j.bioorg.2015.09.004 (Universiti Teknologi Mara, 2015).
